The test relates to P388 leukemia ip, CD2F1 mice, survival T/C. Nature of the test: NCI In Vivo Anticancer Drug Screen. Data for tumor model P388 Leukemia (intraperitoneal) in CD2F1 (CDF1) mice. As to conditions: endpoint: median survival time, higher = longer survival. Put shortly: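 Mice carrying the transplanted tumor received test compound or vehicle. Survival was recorded in each group, and the value is the treated-group measurement divided by that of the vehicle-treated control group.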

Setting [1] is: dose: 50.0 mg/kg/injection, schedule: Q04DX003 (ip), vehicle: saline with Tween-80.
[2] abbreviates: dose: 100.0 mg/kg/injection, schedule: Q04DX003 (ip), vehicle: saline with Tween-80.
The mark [3] stands for this setting: dose: 200.0 mg/kg/injection, schedule: Q04DX003 (ip), vehicle: saline with Tween-80.
Setting [4] is: dose: 12.5 mg/kg/injection, schedule: Q01DX009 (ip), vehicle: saline.
Setting [5] is: dose: 25.0 mg/kg/injection, schedule: Q01DX009 (ip), vehicle: saline.
[6] abbreviates: dose: 50.0 mg/kg/injection, schedule: Q01DX009 (ip), vehicle: saline.
[7] abbreviates: dose: 100.0 mg/kg/injection, schedule: Q01DX009 (ip), vehicle: saline.
Setting [8] is: dose: 60.0 mg/kg/injection, schedule: Q01DX005 (ip), vehicle: saline with Tween-80.
Setting [9] is: dose: 120.0 mg/kg/injection, schedule: Q01DX005 (ip), vehicle: saline with Tween-80.
Setting [10] is: dose: 240.0 mg/kg/injection, schedule: Q01DX005 (ip), vehicle: saline with Tween-80.
Setting [11] is: dose: 25.0 mg/kg/injection, schedule: Q01DX009 (ip), vehicle: Klucel (hydroxypropylcellulose) (HPC).
Setting [12] is: dose: 50.0 mg/kg/injection, schedule: Q01DX009 (ip), vehicle: Klucel (hydroxypropylcellulose) (HPC).
The mark [13] stands for this setting: dose: 50.0 mg/kg/injection, schedule: Q01DX009 (ip), vehicle: saline with Tween-80.
Where [14] appears, read: dose: 100.0 mg/kg/injection, schedule: Q01DX009 (ip), vehicle: saline with Tween-80.
Where [15] appears, read: dose: 200.0 mg/kg/injection, schedule: Q01DX009 (ip), vehicle: saline with Tween-80.
[16] abbreviates: dose: 50.0 mg/kg/injection, schedule: Q01DX005 (ip), vehicle: Klucel (hydroxypropylcellulose) (HPC).
Where [17] appears, read: dose: 100.0 mg/kg/injection, schedule: Q01DX005 (ip), vehicle: Klucel (hydroxypropylcellulose) (HPC).
The mark [18] stands for this setting: dose: 200.0 mg/kg/injection, schedule: Q01DX005 (ip), vehicle: Klucel (hydroxypropylcellulose) (HPC).
[19] abbreviates: dose: 50.0 mg/kg/injection, schedule: Q01DX005 (ip), vehicle: saline with Tween-80.
The mark [20] stands for this setting: dose: 100.0 mg/kg/injection, schedule: Q01DX005 (ip), vehicle: saline with Tween-80.
[21] abbreviates: dose: 200.0 mg/kg/injection, schedule: Q01DX005 (ip), vehicle: saline with Tween-80.

“And” between values parts separate entries of the source, which are not always exact repeats. Equal values may be shown once. Toxic doses and inconclusive results are not listed.

Take `CCOC(=O)NC(=S)Nc1ncn[nH]1`: the T/C under setting [1] was 100 % of control; the T/C under setting [2] is 95 % of control; the T/C under setting [3] was 100 % of control; the T/C (dose: 400.0 mg/kg/injection, schedule: Q04DX003 (ip), vehicle: saline with Tween-80) was 99 % of control.

On to `Nc1ccc2c(c1)Cc1cc(NC=O)ccc1-2`, for which the T/C by setting is: under setting [4], 94 % of control; under setting [5], 91 % of control; under setting [6], 91 % of control; under setting [7], 91 % of control.

Regarding `Cc1cc(C)n(C(=N)/C(C#N)=N/N(C)c2ccccc2)n1`, the T/C is 100 % of control (dose: 25.0 mg/kg/injection, schedule: Q04DX002 (ip), vehicle: saline with Tween-80); 93 % of control (dose: 50.0 mg/kg/injection, schedule: Q04DX002 (ip), vehicle: saline with Tween-80); 90 % of control (dose: 100.0 mg/kg/injection, schedule: Q04DX002 (ip), vehicle: saline with Tween-80).

On to `O=C(Nc1cc(-c2ccccc2)[nH]n1)c1ccccc1Cl`, for which the T/C was 100 % of control under setting [8], 93 % of control under setting [9] and 93 % of control under setting [10].

In the case of `CCSC(C(O)C(O)C(O)C(O)CO)n1cnc2c(=S)nc[nH]c21` (centres undefined), the T/C is 97 % of control (dose: 25.0 mg/kg/injection, schedule: Q01DX009 (ip), vehicle: water); 94 % of control (dose: 50.0 mg/kg/injection, schedule: Q01DX009 (ip), vehicle: water); 105 % of control (dose: 100.0 mg/kg/injection, schedule: Q01DX009 (ip), vehicle: water); 105 % of control (dose: 200.0 mg/kg/injection, schedule: Q01DX009 (ip), vehicle: water); 96 % of control (dose: 400.0 mg/kg/injection, schedule: Q01DX009 (ip), vehicle: water).

For the compound `[N-]=[N+]=C1N=CN=C1c1ncn[nH]1`, the T/C (dose: 3.12 mg/kg/injection, schedule: Q01DX009 (ip), vehicle: Klucel (hydroxypropylcellulose) (HPC)) is 113 % of control; the T/C (dose: 12.5 mg/kg/injection, schedule: Q01DX009 (ip), vehicle: Klucel (hydroxypropylcellulose) (HPC)) was 150 % of control; the T/C under setting [11] is 155 % of control; the T/C under setting [12] was 160 % of control.

On to `CC1(c2ccccc2)Nc2ccccc2C1=Nc1ccccc1` (centres undefined), for which the T/C runs as follows: under setting [1], 99 % of control; under setting [2], 96 % of control; under setting [3], 100 % of control.

For `CCCCn1c(O)c(/C=C2/C=Nc3ccccc32)sc1=O`, the T/C is 95 % of control under setting [13], 95 % of control under setting [14] and 97 % of control under setting [15].

As to `CC1=CC(=O)C(=Ic2ccccc2)C(=O)O1`, the T/C is, setting by setting: under setting [16], 100 % of control; under setting [17], 98 % of control; under setting [18], 104 % of control.

As for `CC(=O)CC(=O)C(F)(F)F.CC(=O)CC(=O)C(F)(F)F.CC(=O)CC(=O)C(F)(F)F.[Sm]`, the T/C reads like this: under setting [12], 96 % of control; (dose: 100.0 mg/kg/injection, schedule: Q01DX009 (ip), vehicle: Klucel (hydroxypropylcellulose) (HPC)) 94 % of control; (dose: 200.0 mg/kg/injection, schedule: Q01DX009 (ip), vehicle: Klucel (hydroxypropylcellulose) (HPC)) 93 % of control; (dose: 400.0 mg/kg/injection, schedule: Q01DX009 (ip), vehicle: Klucel (hydroxypropylcellulose) (HPC)) 94 % of control.

With `CC(C)(C)OC(=O)NC(CCC(N)=O)C(=O)O` (centres undefined), the T/C is, setting by setting: (dose: 50.0 mg/kg/injection, schedule: Q01DX005 (ip), vehicle: saline) 104 % of control; (dose: 100.0 mg/kg/injection, schedule: Q01DX005 (ip), vehicle: saline) 104 % of control; (dose: 200.0 mg/kg/injection, schedule: Q01DX005 (ip), vehicle: saline) 103 % of control.

For `CCCCCCCCCCCCCCCCCCN(C)C`, the T/C was 100 % of control under setting [11] and 101 % of control under setting [12].

With `C[N+]1(C)N=C([O-])N(c2ccccc2F)C1=O`, the T/C was 99 % of control (dose: 100.0 mg/kg/injection, schedule: Q04DX003 (ip), vehicle: Klucel (hydroxypropylcellulose) (HPC)) and 91 % of control (dose: 200.0 mg/kg/injection, schedule: Q04DX003 (ip), vehicle: Klucel (hydroxypropylcellulose) (HPC)).

In the case of `CC1CCC2(NC1)OC1CC3C4CCC5CC(OC6OC(CO)C(OC7OC(CO)C(O)C(OC8OCC(O)C(O)C8O)C7OC7OC(CO)C(O)C(O)C7O)C(O)C6O)CCC5(C)C4CCC3(C)C1C2C` (centres undefined), the T/C reads like this: (dose: 3.12 mg/kg/injection, schedule: Q04DX003 (ip), vehicle: Klucel (hydroxypropylcellulose) (HPC)) 102 % of control; (dose: 6.25 mg/kg/injection, schedule: Q04DX003 (ip), vehicle: Klucel (hydroxypropylcellulose) (HPC)) 100 % of control; (dose: 12.5 mg/kg/injection, schedule: Q04DX003 (ip), vehicle: Klucel (hydroxypropylcellulose) (HPC)) 100 % of control and 91 % of control; (dose: 50.0 mg/kg/injection, schedule: Q04DX003 (ip), vehicle: Klucel (hydroxypropylcellulose) (HPC)) 89 % of control and 93 % of control.

For `[CH3][Sn]([CH3])([O]C(=O)c1ccc2c(c1)OCO2)[O]C(=O)c1ccc2c(c1)OCO2`, the T/C under setting [16] was 112 % of control, the T/C under setting [17] was 112 % of control and the T/C under setting [18] is 109 % of control.

As for `CCOC(=O)C(c1ccccc1)C(NC(C)=O)(C(=O)OCC)C(=O)OCC` (centres undefined), the T/C by setting is: under setting [8], 102 % of control; under setting [9], 102 % of control; under setting [10], 105 % of control.

Turning to `CCCCCCCCCCOC(=O)CC(C)=O.CCCCCCCCCCOC(=O)CC(C)=O.[Ni+2]`, the T/C under setting [4] is 98 % of control; the T/C under setting [5] was 100 % of control; the T/C under setting [6] was 98 % of control and 91 % of control; the T/C under setting [7] was 86 % of control.

Regarding `C=C1CCN(c2ccc(Br)cc2)C1=O`, the T/C is 104 % of control (dose: 4.0 mg/kg/injection, schedule: Q01DX009 (ip), vehicle: saline + alcohol); 92 % of control (dose: 8.0 mg/kg/injection, schedule: Q01DX009 (ip), vehicle: saline + alcohol); 98 % of control (dose: 16.0 mg/kg/injection, schedule: Q01DX009 (ip), vehicle: saline + alcohol); 91 % of control (dose: 32.0 mg/kg/injection, schedule: Q01DX009 (ip), vehicle: saline + alcohol); 98 % of control (dose: 64.0 mg/kg/injection, schedule: Q01DX009 (ip), vehicle: saline + alcohol).

As for `c1ccc(P2(c3ccccc3)=NSN=S=N2)cc1`, the T/C is, setting by setting: under setting [19], 107 % of control; under setting [20], 116 % of control; under setting [21], 108 % of control.

For the compound `C#CCOC(=O)C(Cl)(Cl)Cl`, the T/C reads like this: (dose: 100.0 mg/kg/injection, schedule: Q04DX003 (ip), vehicle: saline) 107 % of control; (dose: 200.0 mg/kg/injection, schedule: Q04DX003 (ip), vehicle: saline) 115 % of control.

For `C#CCn1c2c(c3ccccc3c1=O)C(=O)c1ccccc1-2`, the T/C is, setting by setting: under setting [19], 88 % of control; under setting [20], 88 % of control; under setting [21], 101 % of control.

On to `CC(C)Cc1cc(-c2cc(CC(C)C)on2)no1`, for which the T/C is, setting by setting: (dose: 60.0 mg/kg/injection, schedule: Q01DX005 (ip), vehicle: saline) 100 % of control; (dose: 120.0 mg/kg/injection, schedule: Q01DX005 (ip), vehicle: saline) 104 % of control; (dose: 240.0 mg/kg/injection, schedule: Q01DX005 (ip), vehicle: saline) 100 % of control.

As for `CN1C(=O)N/C(=C2/CCOC2=O)C1=O`, the T/C under setting [13] is 106 % of control, the T/C under setting [14] was 88 % of control and the T/C under setting [15] is 98 % of control.

In the case of `C/C(=N/O)[c-]1[c-][c-][c-][c-]1.[Fe].[c-]1[c-][c-][cH-][c-]1`, the T/C was 120 % of control (dose: 25.0 mg/kg/injection, schedule: Q01DX009 (ip), vehicle: saline with Tween-80); 115 % of control under setting [13]; 100 % of control under setting [14].
